From PubChem BioAssay AID248 (DTP/NCI, 2004)
“And” between values parts separate entries of the source, which are not always exact repeats. Equal entries are not always repeated. Toxic doses and inconclusive results are not listed. Rule as the data show it: active = T/C of 150% or more; inactive = T/C below 125%.

Tested on: L1210 leukemia ip in BDF1 mice, survival T/C
Assay: NCI In Vivo Anticancer Drug Screen. Data for tumor model L1210 Leukemia (intraperitoneal) in B6D2F1 (BDF1) mice
Details: endpoint: mean survival time, higher = longer survival
Outline: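 In this screen, tumor-bearing mice given compound are compared to those given vehicle, and their survival values are reported as a treated-to-control quotient.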

[1] = dose: 100.0 mg/kg/injection, schedule: Q01DX001 (ip), vehicle: Klucel (hydroxypropylcellulose) (HPC)
[2] = dose: 200.0 mg/kg/injection, schedule: Q01DX001 (ip), vehicle: Klucel (hydroxypropylcellulose) (HPC)
[3] = dose: 100.0 mg/kg/injection, schedule: Q01DX001 (ip), vehicle: saline
[4] = dose: 50.0 mg/kg/injection, schedule: Q01DX001 (ip), vehicle: carboxymethylcellulose (CMC)
[5] = dose: 100.0 mg/kg/injection, schedule: Q01DX001 (ip), vehicle: carboxymethylcellulose (CMC)
[6] = dose: 200.0 mg/kg/injection, schedule: Q01DX001 (ip), vehicle: carboxymethylcellulose (CMC)
[7] = dose: 400.0 mg/kg/injection, schedule: Q01DX001 (ip), vehicle: saline with Tween-80
[8] = dose: 6.25 mg/kg/injection, schedule: Q04DX003 (ip), vehicle: saline with Tween-80
[9] = dose: 200.0 mg/kg/injection, schedule: Q01DX001 (ip), vehicle: saline
[10] = dose: 400.0 mg/kg/injection, schedule: Q01DX001 (ip), vehicle: saline

Measured: T/C

Nc1n[nH]c2cccc(Cl)c12
inactive: dose: 50.0 mg/kg/injection, schedule: Q01DX009 (ip), vehicle: saline 96 % of control | dose: 100.0 mg/kg/injection, schedule: Q01DX009 (ip), vehicle: saline 104 % of control | dose: 200.0 mg/kg/injection, schedule: Q01DX009 (ip), vehicle: saline 96 % of control

CN1CCC=C(COC(=O)C(C)(C)C)C1
inactive: dose: 75.0 mg/kg/injection, schedule: Q01DX001 (ip), vehicle: carboxymethylcellulose (CMC) 92 % of control | dose: 150.0 mg/kg/injection, schedule: Q01DX001 (ip), vehicle: carboxymethylcellulose (CMC) 87 % of control | dose: 300.0 mg/kg/injection, schedule: Q01DX001 (ip), vehicle: carboxymethylcellulose (CMC) 95 % of control

CCOc1ccc2cc(Br)ccc2c1
inactive: dose: 50.0 mg/kg/injection, schedule: Q01DX001 (ip), vehicle: Klucel (hydroxypropylcellulose) (HPC) 101 % of control | [1] 106 % of control | [2] 97 % of control

Cc1cccc(NC(=O)Cc2ccccc2)c1C
inactive: dose: 100.0 mg/kg/injection, schedule: Q04DX002 (ip), vehicle: saline 99 % of control | dose: 200.0 mg/kg/injection, schedule: Q04DX002 (ip), vehicle: saline 105 % of control | dose: 400.0 mg/kg/injection, schedule: Q04DX002 (ip), vehicle: saline 101 % of control

O=C1CCSc2c1ccc1ccccc21
inactive: [3] 87 % of control

O=C(NO)c1ccccc1.O=C(NO)c1ccccc1.O=C(NO)c1ccccc1.[Fe]
inactive: dose: 100.0 mg/kg/injection, schedule: Q04DX003 (ip), vehicle: DMSO 93 % of control

Cc1cscc(C)c1=S
inactive: dose: 6.25 mg/kg/injection, schedule: Q01DX009 (ip), vehicle: saline + alcohol 106 % of control | dose: 12.5 mg/kg/injection, schedule: Q01DX009 (ip), vehicle: saline + alcohol 105 % of control | dose: 25.0 mg/kg/injection, schedule: Q01DX009 (ip), vehicle: saline + alcohol 92 % of control

O=C(Nc1ccc(C(=O)O)c(O)c1)Nc1ccccc1C(F)(F)F
inactive: [4] 92 % of control | dose: 50.0 mg/kg/injection, schedule: Q01DX009 (ip), vehicle: carboxymethylcellulose (CMC) 100 % of control and 106 % of control | dose: 50.0 mg/kg/injection, schedule: Q04DX003 (ip), vehicle: carboxymethylcellulose (CMC) 93 % of control | [5] 101 % of control | dose: 100.0 mg/kg/injection, schedule: Q01DX009 (ip), vehicle: carboxymethylcellulose (CMC) 105 % of control and 92 % of control | dose: 100.0 mg/kg/injection, schedule: Q04DX002 (ip), vehicle: carboxymethylcellulose (CMC) 94 % of control and 97 % of control | dose: 100.0 mg/kg/injection, schedule: Q04DX003 (ip), vehicle: carboxymethylcellulose (CMC) 88 % of control | [6] 97 % of control | dose: 200.0 mg/kg/injection, schedule: Q01DX009 (ip), vehicle: carboxymethylcellulose (CMC) 91 % of control and 92 % of control | dose: 200.0 mg/kg/injection, schedule: Q04DX002 (ip), vehicle: carboxymethylcellulose (CMC) 101 % of control and 108 % of control | dose: 200.0 mg/kg/injection, schedule: Q04DX003 (ip), vehicle: carboxymethylcellulose (CMC) 89 % of control | dose: 400.0 mg/kg/injection, schedule: Q04DX002 (ip), vehicle: carboxymethylcellulose (CMC) 103 % of control

O=[N+]([O-])c1ccc([As](=O)(O)c2ccc([N+](=O)[O-])cc2)cc1
inactive: dose: 75.0 mg/kg/injection, schedule: Q01DX001 (ip), vehicle: saline 95 % of control | dose: 150.0 mg/kg/injection, schedule: Q01DX001 (ip), vehicle: saline 100 % of control

CCN(Cc1ccncc1)C(=O)C(O)(c1ccccc1)c1ccccc1
inactive: dose: 100.0 mg/kg/injection, schedule: Q01DX001 (ip), vehicle: saline with Tween-80 93 % of control | dose: 200.0 mg/kg/injection, schedule: Q01DX001 (ip), vehicle: saline with Tween-80 88 % of control | [7] 87 % of control

O=C(O)COc1ccc(OS(=O)(=O)c2ccccc2)cc1
inactive: dose: 100.0 mg/kg/injection, schedule: Q04DX002 (ip), vehicle: Klucel (hydroxypropylcellulose) (HPC) 103 % of control | dose: 200.0 mg/kg/injection, schedule: Q04DX002 (ip), vehicle: Klucel (hydroxypropylcellulose) (HPC) 111 % of control | dose: 400.0 mg/kg/injection, schedule: Q04DX002 (ip), vehicle: Klucel (hydroxypropylcellulose) (HPC) 103 % of control

C=CCOCC(O)C[As](=O)(O)c1ccc(Cl)cc1 (centres undefined)
inactive: dose: 1.56 mg/kg/injection, schedule: Q04DX003 (ip), vehicle: saline with Tween-80 104 % of control | dose: 3.13 mg/kg/injection, schedule: Q04DX003 (ip), vehicle: saline with Tween-80 104 % of control | [8] 112 % of control

O=[N+]([O-])c1ccc(NCSc2ccc(Cl)cc2)cc1
inactive: dose: 100.0 mg/kg/injection, schedule: Q04DX003 (ip), vehicle: other 101 % of control | dose: 200.0 mg/kg/injection, schedule: Q04DX003 (ip), vehicle: other 106 % of control | dose: 400.0 mg/kg/injection, schedule: Q04DX003 (ip), vehicle: other 108 % of control

c1ccc(CSC2=NCCS2)cc1
inactive: [3] 101 % of control | dose: 100.0 mg/kg/injection, schedule: Q01DX009 (ip), vehicle: saline with Tween-80 98 % of control | [9] 106 % of control | dose: 200.0 mg/kg/injection, schedule: Q01DX009 (ip), vehicle: saline with Tween-80 98 % of control | [10] 106 % of control | dose: 400.0 mg/kg/injection, schedule: Q01DX009 (ip), vehicle: saline with Tween-80 104 % of control

CC(C)C(C)/C=C/C(C)C1CCC2C3CC=C4CC(O)CCC4(C)C3CCC12C (centres undefined)
inactive: [1] 97 % of control | [2] 101 % of control | dose: 400.0 mg/kg/injection, schedule: Q01DX001 (ip), vehicle: Klucel (hydroxypropylcellulose) (HPC) 90 % of control

CC(=O)Nc1nncs1
inactive: dose: 7.0 mg/kg/injection, schedule: Q03HX032 (ip), vehicle: saline with Tween-80 105 % of control | dose: 11.0 mg/kg/injection, schedule: Q03HX032 (ip), vehicle: saline with Tween-80 108 % of control | dose: 16.0 mg/kg/injection, schedule: Q03HX032 (ip), vehicle: saline with Tween-80 107 % of control | dose: 24.0 mg/kg/injection, schedule: Q03HX032 (ip), vehicle: saline with Tween-80 101 % of control | dose: 27.0 mg/kg/injection, schedule: Q01DX015 (ip), vehicle: saline with Tween-80 109 % of control | dose: 31.0 mg/kg/injection, schedule: Q01DX015 (ip), vehicle: carboxymethylcellulose (CMC) 96 % of control | dose: 36.0 mg/kg/injection, schedule: Q03HX032 (ip), vehicle: saline with Tween-80 108 % of control | dose: 40.0 mg/kg/injection, schedule: Q01DX015 (ip), vehicle: saline with Tween-80 95 % of control | dose: 50.0 mg/kg/injection, schedule: Q01DX001 (ip), vehicle: saline 112 % of control | dose: 60.0 mg/kg/injection, schedule: Q01DX015 (ip), vehicle: saline with Tween-80 97 % of control | dose: 62.0 mg/kg/injection, schedule: Q01DX015 (ip), vehicle: carboxymethylcellulose (CMC) 102 % of control | dose: 90.0 mg/kg/injection, schedule: Q01DX015 (ip), vehicle: saline with Tween-80 101 % of control | [3] 115 % of control | dose: 135.0 mg/kg/injection, schedule: Q01DX015 (ip), vehicle: saline with Tween-80 95 % of control | [9] 112 % of control | dose: 248.0 mg/kg/injection, schedule: Q01DX015 (ip), vehicle: carboxymethylcellulose (CMC) 98 % of control | dose: 270.0 mg/kg/injection, schedule: Q01DX001 (ip), vehicle: saline with Tween-80 101 % of control | [7] 109 % of control | [10] 106 % of control | dose: 600.0 mg/kg/injection, schedule: Q01DX001 (ip), vehicle: saline with Tween-80 112 % of control | dose: 900.0 mg/kg/injection, schedule: Q01DX001 (ip), vehicle: saline with Tween-80 109 % of control | dose: 1350.0 mg/kg/injection, schedule: Q01DX001 (ip), vehicle: saline with Tween-80 120 % of control

Cc1c(-c2ccccc2)oc2c(C(=O)OCCN3CCCCC3)cccc2c1=O
inactive: [3] 102 % of control | [9] 102 % of control | [10] 96 % of control

CCOC(=O)CNC(=O)C(=[N+]=[N-])C(=O)COc1ccc(F)cc1
inactive: [4] 104 % of control | [5] 95 % of control | [6] 101 % of control | dose: 400.0 mg/kg/injection, schedule: Q01DX001 (ip), vehicle: carboxymethylcellulose (CMC) 90 % of control

CCOC(=O)NCC(C)(CCN1CCCCC1)c1cccc2ccccc12 (centres undefined)
inactive: [8] 104 % of control | dose: 12.5 mg/kg/injection, schedule: Q04DX003 (ip), vehicle: saline with Tween-80 98 % of control | dose: 25.0 mg/kg/injection, schedule: Q04DX003 (ip), vehicle: saline with Tween-80 97 % of control
